# Molecular target: TgCDPK1 (Toxoplasma gondii, UniProt Q9BJF5)
# Experiment: biochemical
# TgCDPK1, sequence (Q9BJF5 1-507): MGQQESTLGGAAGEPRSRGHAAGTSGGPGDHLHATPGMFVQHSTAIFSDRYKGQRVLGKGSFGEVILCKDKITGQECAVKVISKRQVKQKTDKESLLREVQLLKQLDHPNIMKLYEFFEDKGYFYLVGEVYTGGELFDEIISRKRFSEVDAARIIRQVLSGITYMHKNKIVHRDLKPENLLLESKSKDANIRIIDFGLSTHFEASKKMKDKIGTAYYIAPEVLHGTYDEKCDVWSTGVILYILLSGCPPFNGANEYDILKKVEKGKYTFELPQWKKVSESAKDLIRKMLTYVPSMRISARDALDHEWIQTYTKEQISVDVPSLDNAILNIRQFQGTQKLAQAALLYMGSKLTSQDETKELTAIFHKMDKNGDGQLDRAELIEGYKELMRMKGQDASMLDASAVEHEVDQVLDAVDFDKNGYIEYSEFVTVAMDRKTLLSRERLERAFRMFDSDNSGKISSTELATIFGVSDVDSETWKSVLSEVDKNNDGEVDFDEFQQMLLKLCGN
row,SMILES,IC50 [nM]
1,"CN1CC(O)(Cn2nc(-c3ccc4nc(OC5CC5)ccc4c3)c3c(N)ncnc32)C1 [Example 103, 3-((4-amino-3-(2-cyclopropoxyquinolin-6-yl)-1H-pyrazolo[3,4-d]pyrimidin-1-yl)methyl)-1-methylazetidin-3-ol]",4.8
2,"CC(C)Cn1nc(-c2ccc3cc(OCCO)ccc3c2)c2c(N)ncnc21 [Example 34, 2-(6-(4-amino-1-isobutyl-1H-pyrazolo[3,4-d]pyrimidin-3-yl)naphthalen-2-yloxy)ethanol]",5.8
3,"Nc1ncnc2c1c(-c1ccc3cc(OC4CC4)ccc3c1)nn2CC1(O)CNC1 [Example 90, 3-((4-amino-3-(6-cyclopropoxynaphthalen-2-yl)-1H-pyrazolo[3,4-d]pyrimidin-1-yl)methyl)azetidin-3-ol]",5.1
4,"COC(=O)COc1ccc2cc(-c3nn(CC4CCNCC4)c4ncnc(N)c34)ccc2n1 [Example 89, methyl 2-(6-(4-amino-1-(piperidin-4-ylmethyl)-1H-pyrazolo[3,4-d]pyrimidin-3-yl)quinolin-2-yloxy)acetate]",1440
5,"CCOc1ccc2ccc(-c3nn(CC4CCNCC4)c4ncnc(N)c34)cc2c1 [Example 48, 3-(7-ethoxynaphthalen-2-yl)-1-(piperidin-4-ylmethyl)-1H-pyrazolo[3,4-d]pyrimidin-4-amine]",19.1
6,"Nc1ncnc2c1c(-c1ccc3cc(OC(F)F)ccc3c1)nn2CC1CCNCC1 [Example 94, 3-(6-(difluoromethoxy)naphthalen-2-yl)-1-(piperidin-4-ylmethyl)-1H-pyrazolo[3,4-d]pyrimidin-4-amine]",1.9
7,"CCOc1ccc2cc(-c3nn(CC4(O)CCN(C)CC4)c4ncnc(N)c34)ccc2n1 [Example 80, 4-((4-amino-3-(2-ethoxyquinolin-6-yl)-1H-pyrazolo[3,4-d]pyrimidin-1-yl)methyl)-1-methylpiperidin-4-ol]",23.1
8,"COC(C)(C)Cn1nc(-c2ccc3cc(OC4CC4)ccc3c2)c2c(N)ncnc21 [Example 66, 3-(6-cyclopropoxynaphthalen-2-yl)-1-(2-methoxy-2-methylpropyl)-1H-pyrazolo[3,4-d]pyrimidin-4-amine]",1660
9,"CCOc1ccc2cc(-c3nn(CC(C)(C)CO)c4ncnc(N)c34)ccc2c1 [Example 32, 3-(4-amino-3-(6-ethoxynaphthalen-2-yl)-1H-pyrazolo[3,4-d]pyrimidin-1-yl)-2,2-dimethylpropan-1-ol]",1.2
10,"Nc1ncnc2c1c(-c1ccc3cc(OC4COC4)ccc3c1)nn2CC1CCOCC1 [Example 31, 3-(6-(oxetan-3-yloxy)naphthalen-2-yl)-1-((tetrahydro-2H-pyran-4-yl)methyl)-1H-pyrazolo[3,4-d]pyrimidin-4-amine]",35.8
11,"Nc1ncnc2c1c(-c1ccc3nc(OC4CC4)ccc3c1)nn2CC1CCNCC1 [Example 39, 3-(2-cyclopropoxyquinolin-6-yl)-1-(piperidin-4-ylmethyl)-1H-pyrazolo[3,4-d]pyrimidin-4-amine]",1
12,"COCCOc1ccc2cc(-c3nn(CC4CCN(C)CC4)c4ncnc(N)c34)ccc2n1 [Example 42, 3-(2-(2-methoxyethoxy)quinolin-6-yl)-1-((1-methylpiperidin-4-yl)methyl)-1H-pyrazolo[3,4-d]pyrimidin-4-amine]",8
13,"Nc1ncnc2c1c(-c1ccc3nc(OC4CC4)ccc3c1)nn2CC1(O)CCC1 [Example 57, 1-((4-amino-3-(2-cyclopropoxyquinolin-6-yl)-1H-pyrazolo[3,4-d]pyrimidin-1-yl)methyl)cyclobutanol]",6.1
14,"CCOc1ccc2cc(-c3nn(CC4(C#N)CCN(C)CC4)c4ncnc(N)c34)ccc2n1 [Example 87, 4-((4-amino-3-(2-ethoxyquinolin-6-yl)-1H-pyrazolo[3,4-d]pyrimidin-1-yl)methyl)-1-methylpiperidine-4-carbonitrile]",103
15,"Nc1ncnc2c1c(-c1ccc3cc(OC4CCC4)ccc3c1)nn2CC1CCOCC1 [Example 30, 3-(6-cyclobutoxynaphthalen-2-yl)-1-((tetrahydro-2H-pyran-4-yl)methyl)-1H-pyrazolo[3,4-d]pyrimidin-4-amine]",2.6
16,"Nc1ncnc2c1c(-c1ccc3cc(OCC4CC4)ccc3c1)nn2CC1CCOCC1 [Example 29, 3-(6-(cyclopropylmethoxy)naphthalen-2-yl)-1-((tetrahydro-2H-pyran-4-yl)methyl)-1H-pyrazolo[3,4-d]pyrimidin-4-amine]",4.8
17,"CC(C)(Cn1nc(-c2ccc3cc(OC4CC4)ccc3c2)c2c(N)ncnc21)C(=O)O [Example 76, 3-(4-amino-3-(6-cyclopropoxynaphthalen-2-yl)-1H-pyrazolo[3,4-d]pyrimidin-1-yl)-2,2-dimethylpropanoic acid]",19.4
18,"CCOc1ccc2cc(-c3nn(CC4(O)CNC4)c4ncnc(N)c34)ccc2c1 [Example 96, 3-((4-amino-3-(6-ethoxynaphthalen-2-yl)-1H-pyrazolo[3,4-d]pyrimidin-1-yl)methyl)azetidin-3-ol]",7.8
19,"CC(C)(O)Cn1cc(-c2ccc3nc(OC4CC4)ccc3c2)c2c(N)ncnc21 [Example 55, 1-(4-amino-5-(2-cyclopropoxyquinolin-6-yl)-7H-pyrrolo[2,3-d]pyrimidin-7-yl)-2-methylpropan-2-ol]",3.2
20,"COCCOc1ccc2cc(-c3nn(CC(C)C)c4ncnc(N)c34)ccc2c1 [Example 36, 1-isobutyl-3-(6-(2-methoxyethoxy)naphthalen-2-yl)-1H-pyrazolo[3,4-d]pyrimidin-4-amine]",1.7
21,"CCOc1ccc2cc(-c3nc(CC4CCNCC4)n4ccnc(N)c34)ccc2c1 [Example 114, 1-(6-ethoxynaphthalen-2-yl)-3-(piperidin-4-ylmethyl)imidazo[1,5-a]pyrazin-8-amine]",10
22,"CN1CCC(C#N)(Cn2nc(-c3ccc4cc(OC(F)F)ccc4c3)c3c(N)ncnc32)CC1 [Example 102, 4-((4-amino-3-(6-(difluoromethoxy)naphthalen-2-yl)-1H-pyrazolo[3,4-d]pyrimidin-1-yl)methyl)-1-methylpiperidine-4-carbonitrile]",18.2
23,"Nc1ncnc2c1c(-c1ccc3cc(OC4CC4)ccc3c1)nn2CC(=O)N1CCOCC1 [Example 51, 2-(4-amino-3-(6-cyclopropoxynaphthalen-2-yl)-1H-pyrazolo[3,4-d]pyrimidin-1-yl)-1-morpholinoethanone]",15.8
24,"Nc1ncnc2c1c(-c1ccc3nc(OC4CC4)ccc3c1)nn2CC1(O)CCCC1 [Example 60, 1-((4-amino-3-(2-cyclopropoxyquinolin-6-yl)-1H-pyrazolo[3,4-d]pyrimidin-1-yl)methyl)cyclopentanol]",12.7
25,"CCOc1ccc2cc(-c3nn(CC4(O)CCNCC4)c4ncnc(N)c34)ccc2c1 [Example 70, 4-((4-amino-3-(6-ethoxynaphthalen-2-yl)-1H-pyrazolo[3,4-d]pyrimidin-1-yl)methyl)piperidin-4-ol]",23.3
26,"CC(C)(COCCO)Cn1nc(-c2ccc3nc(OC4CC4)ccc3c2)c2c(N)ncnc21 [Example 45, 2-(3-(4-amino-3-(2-cyclopropoxyquinolin-6-yl)-1H-pyrazolo[3,4-d]pyrimidin-1-yl)-2,2-dimethylpropoxy)ethanol]",1200
27,"Nc1ncnc2c1c(-c1ccc3cc(OC4CC4)ccc3c1)nn2CC1(CO)COC1 [Example 65, (3-((4-amino-3-(6-cyclopropoxynaphthalen-2-yl)-1H-pyrazolo[3,4-d]pyrimidin-1-yl)methyl)oxetan-3-yl)methanol]",2.9

# — patent US10307425B2, “Compositions and methods for treating toxoplasmosis, cryptosporidiosis and other apicomplexan protozoan related diseases” (UNIVERSITY OF WASHINGTON, priority 2015, dated 2019)
